Measured values published in patent publication US20040019430A1, “Methods and systems for analyzing complex biological systems” (priority 2001, published 2004).

Assays:
[1] = system: Saccharomyces cerevisiae wild type strain BY4743; test: AF1 combined gene expression and metabolite data mapped to KEGG reactions and pathways; assay type: cell-based; settings: yeast AF1
From the text: In AF1, two different technologies were utilized: gene expression analysis (for examination of mRNA expression) and metabolite analysis. […] As noted previously, existing metabolic databases may be helpful in practicing the methods and systems of the present invention, but many databases include limitations that make their use in data analysis and pathway mapping less than straightforward. […] This caveat to KEGG makes it difficult to pinpoint the correct pathway when attempting to link a gene to a specific pathway. […] The pathway score indicates how meaningful the mapping is, or how likely it is to be correctly indicative of the pathway involved in the perturbation under examination. The method provides a pathway score based on perturbation levels of genes and/or compounds and the information content of each gene and/or compound in the pathway, i.e., a pathway score indicates the extent to which other pathways are mapped to a gene/compound. For example, imagine that two genes are perturbed in a particular experiment. One gene maps to only one pathway, giving a high degree of probability that the perturbed pathway is the one identified in the mapping. The second gene maps to three pathways. In the later example, there is only one-third the probability that the pathway identified in the mapping is the one perturbed. The present invention provides a method for calculating the pathway scores, so that more weight is given to a score of a gene or compound that maps to only one pathway than to a score of a gene or compound that maps to multiple pathways. […] Where n=the total number of genes in the pathway; ipath—count=the number of pathways containing a gene; and j=the number of genes in the pathway that are perturbed. Another factor to be considered when weighting a pathway score is the degree of perturbation. Degree of perturbation can be calculated, for example, based on a number of standard deviations from a norm, and included in an equation such as the one shown above, so that not only the number of pathways is taken into account, but also accounts for the amount of gene transcript or compound present as compared to a control. Compounds were also linked to pathways using the KEGG database. KEGG links 676 compounds measured in AF1 to a total of 92 pathways. Of the 676 compounds under consideration, 77 were detected in the AF1 samples. […] The multiple mapping feature of KEGG makes it difficult to pinpoint the correct pathway when trying to link a compound to a specific pathway. […] A pathway score calculation is applied to the compounds to account for both information content (number of pathways a compound maps to) and perturbation level. The data were then combined to determine the number of reactions showing an enzyme and at least one compound perturbed, and to determine the number of pathways having at least one enzyme and one perturbed compound perturbed. The results of the analysis are represented in Tables 16 and 17, and were difficult to interpret, illustrating that the ability to draw conclusions from compound mapping to pathways is limited when absent additional data.

Magnaporthe grisea = assay type: cell-based
[2] = system: Arabidopsis thaliana plants; test: SOA1 phenotypic analysis of herbicide-treated Arabidopsis plants (MIC, Tmic, leaf traits); assay type: in vivo; settings: for Characteristic symptoms (phenotype): herbicide treated Arabidopsis; for Dev. leafCurling / Dev. leafTwisting / Dev. matureLeafAnthocyanins / Dev. matureLeafChlorosis / Dev. matureLeafNecrosis / Dev. newLeafAnthocyanins / Dev. newLeafChlorosis / Dev. newLeafNecrosis / Dev. pointedLeaves: numeric value standardized to mock treated; for Dev. leafWidth: numeric value standardized to the average response for the mock treated tissues; for Symptom Class: three-week-old Arabidopsis plants treated with herbicide, phenotype classes of FIG. 12
Arabidopsis thaliana [3] = test: MOA1 biochemical (metabolite) profiling by LC-MS and GC-MS
Arabidopsis thaliana [4] = test: MOA1 phenotypic profiling of Arabidopsis sprayed with unknown and commercial herbicides; assay type: in vivo; settings: Ward's method
[5] = system: Saccharomyces cerevisiae wild type strain BY4743; test: AF1 metabolite analysis (GC-MS, LC-MS) of yeast cells treated with antifungal drugs; assay type: cell-based; design: Fold Change: scale not given here
[6] = 250 μg/ml (partially inhibitory)

Structure (SMILES): OC(Cn1cncn1)(Cn1cncn1)c1ccc(F)cc1F [Fluconazole]
- # Reactions (title: Number Of Pathways Having at Least One Enzyme and One Compound Perturbed) [1]: 15

Structure (SMILES): CP(=O)(O)CCC(N)C(=O)O (centres unmarked) [Glufosinate]
- Nitrogen sources M. grisea can utilize in presence of compound (Magnaporthe grisea): only able to utilize glutamine and glutamate as nitrogen sources
- Dev. tMic [2]: 1
- Characteristic symptoms (phenotype) [2]: Chlorosis and leaf curling
- Dev. leafCurling [2]: 2
- Dev. leafTwisting [2]: 1
- Dev. matureLeafAnthocyanins [2]: 0
- Dev. matureLeafChlorosis [2]: 3
- Dev. matureLeafNecrosis [2]: 0
- Dev. newLeafAnthocyanins [2]: 0
- Dev. newLeafChlorosis [2]: 3
- Dev. newLeafNecrosis [2]: 0
- Dev. pointedLeaves [2]: 1
- Dev. leafWidth [2]: −2
- Symptom Class [2]: 3
- Stress-related (commonly regulated) metabolites (Arabidopsis thaliana [3]; MOA1, 20 min and 1 hr after spraying): Only a few, if any, stress-related metabolites were observed
- Hierarchical cluster analysis of the eleven phenotypic characteristics / phenotype (Arabidopsis thaliana [4]): clustered with amitrole

Structure (SMILES): O=C(O)CNCP(=O)(O)O [Glyphosate]
- Growth of M. grisea with ammonium or glutamine provided (Magnaporthe grisea; [6]): Little growth defect
- Growth of M. grisea with nitrate, nitrite, or glutamate as the sole nitrogen source (Magnaporthe grisea; [6]): inhibited growth
- Dev. tMic [2]: 2
- Characteristic symptoms (phenotype) [2]: anthocyanin accumulation in the older leaves accompanied by chlorosis of the newly emerging leaves
- Dev. leafCurling [2]: 0
- Dev. leafTwisting [2]: 0
- Dev. matureLeafAnthocyanins [2]: 3
- Dev. matureLeafChlorosis [2]: 1
- Dev. matureLeafNecrosis [2]: 3
- Dev. newLeafAnthocyanins [2]: 1
- Dev. newLeafChlorosis [2]: 2
- Dev. newLeafNecrosis [2]: 0
- Dev. pointedLeaves [2]: 1
- Dev. leafWidth [2]: 0
- Symptom Class [2]: 4
- Tyrosine level (metabolite downstream from the SOA) (Arabidopsis thaliana [3]; after one hour): decreased relative to the control after one hour
- Hierarchical cluster analysis of the eleven phenotypic characteristics / phenotype (Arabidopsis thaliana [4]): clustered with amitrole

Structure (SMILES): CC(=O)N1CCN(c2ccc(OCC3COC(Cn4ccnc4)(c4ccc(Cl)cc4Cl)O3)cc2)CC1 (centres unmarked) [Ketoconazole]
- # Compounds perturbed by treatment ([5]; P < 0.1, yeast, 2x MIC, two hours): 15
- # Reactions (title: Number Of Pathways Having at Least One Enzyme and One Compound Perturbed) [1]: 24

Structure (SMILES): CC[C@@H]([C@H](C)O)n1ncn(-c2ccc(N3CCN(c4ccc(OC[C@@H]5CO[C@@](Cn6cncn6)(c6ccc(F)cc6F)C5)cc4)CC3)cc2)c1=O [Posaconazole]
- Fold Change ([5]; metabolite NacetylD-glucosamine, platform nLC): 0
- Fold Change ([5]; metabolite NacetylD-glucosamine, platform pLC): 0
- Fold Change ([5]; metabolite NacetylL-glutamate, platform pLC): 0
- Fold Change ([5]; metabolite NacetylL-ornithine, platform nLC): 0
- Fold Change ([5]; metabolite niacinamide, platform pLC): 0
- Fold Change ([5]; metabolite nopaline, platform pLC): 0
- Fold Change ([5]; metabolite ornithine3, platform GC): 0.041
- Fold Change ([5]; metabolite orotic acid, platform nLC): 0
- Fold Change ([5]; metabolite phenylpyruvic acid, platform nLC): 0
- Fold Change ([5]; metabolite phosphoenolpyruvate, platform nLC): 0
- Fold Change ([5]; metabolite phosphoenolpyruvate, platform pLC): 0
- Fold Change ([5]; metabolite pinitol, platform nLC): 0
- Fold Change ([5]; metabolite porphobilinogen, platform nLC): 0
- Fold Change ([5]; metabolite progesterone, platform pLC): 0
- Fold Change ([5]; metabolite retinoic acid, platform nLC): 0
- Fold Change ([5]; metabolite riboflavin, platform pLC): 0
- Fold Change ([5]; metabolite salicylic/HObenzoic, platform nLC): 0
- Fold Change ([5]; metabolite shikimic acid, platform nLC): 0
- Fold Change ([5]; metabolite sinapinic acid, platform nLC): 0
- Fold Change ([5]; metabolite sugar-phosphate, platform pLC): 0
- Fold Change ([5]; metabolite thiamine, platform pLC): 0
- Fold Change ([5]; metabolite thymine, platform nLC): 0
- Fold Change ([5]; metabolite thymine, platform pLC): 0
- Fold Change ([5]; metabolite tryptophan, platform pLC): 0
- Fold Change ([5]; metabolite uric acid, platform pLC): 0
- Fold Change ([5]; metabolite urocanic acid, platform nLC): 0
- Fold Change ([5]; metabolite urocanic acid, platform pLC): 0
- Fold Change ([5]; metabolite xanthosine (diH2O), platform pLC): 0
- Fold Change ([5]; metabolite xanthosine-DiH2O, platform nLC): 0
- Fold Change ([5]; metabolite zeatin, platform nLC): 0
- Fold Change ([5]; metabolite zeatin, platform pLC): 0
- # Reactions (title: Number Of Pathways Having at Least One Enzyme and One Compound Perturbed) [1]: 3
